The assay concerns the target T1, fibrin (clotted fibrinogen from human plasma) (Homo sapiens, UniProt P02671+P02675+P02679).
T1 construct: thrombin cleaves fibrinopeptides on fibrinogen resulting in an end-to-end polymerization to give the polymer fibrin; Fibrinogen from human plasma (Calbiochem); purchased Calbiochem; host or cells: human plasma
T1 sequence (P02671 36-629 isoform P02671-2 limits assumed): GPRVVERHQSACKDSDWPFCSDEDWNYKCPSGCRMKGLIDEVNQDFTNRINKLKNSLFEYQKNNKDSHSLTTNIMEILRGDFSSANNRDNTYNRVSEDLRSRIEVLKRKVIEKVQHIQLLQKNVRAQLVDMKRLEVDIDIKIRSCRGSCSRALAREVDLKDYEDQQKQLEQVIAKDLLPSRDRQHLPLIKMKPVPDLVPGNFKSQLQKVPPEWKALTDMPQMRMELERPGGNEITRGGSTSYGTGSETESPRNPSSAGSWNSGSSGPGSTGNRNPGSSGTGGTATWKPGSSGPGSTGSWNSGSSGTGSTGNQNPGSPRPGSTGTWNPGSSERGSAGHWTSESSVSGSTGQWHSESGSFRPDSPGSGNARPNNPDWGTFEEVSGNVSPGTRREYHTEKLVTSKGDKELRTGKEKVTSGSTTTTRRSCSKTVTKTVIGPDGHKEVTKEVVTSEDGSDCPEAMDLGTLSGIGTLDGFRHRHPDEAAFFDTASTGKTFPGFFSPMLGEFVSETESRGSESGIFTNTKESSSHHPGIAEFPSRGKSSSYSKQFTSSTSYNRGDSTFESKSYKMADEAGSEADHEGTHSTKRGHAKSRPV
T1 sequence (P02675 45-491 limits assumed): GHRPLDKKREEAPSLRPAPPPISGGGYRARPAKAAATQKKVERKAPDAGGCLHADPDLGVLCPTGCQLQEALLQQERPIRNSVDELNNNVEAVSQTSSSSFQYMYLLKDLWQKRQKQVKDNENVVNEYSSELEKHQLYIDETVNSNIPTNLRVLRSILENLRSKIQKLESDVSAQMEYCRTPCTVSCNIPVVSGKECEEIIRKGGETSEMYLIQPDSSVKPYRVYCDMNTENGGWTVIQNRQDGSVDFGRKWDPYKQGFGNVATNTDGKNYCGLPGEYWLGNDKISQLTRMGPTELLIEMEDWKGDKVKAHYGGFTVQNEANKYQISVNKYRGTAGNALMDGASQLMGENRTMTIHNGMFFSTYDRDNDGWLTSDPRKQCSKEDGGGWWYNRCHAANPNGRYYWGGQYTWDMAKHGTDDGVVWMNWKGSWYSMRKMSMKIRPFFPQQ
T1 sequence (P02679 27-437 isoform P02679-2 limits assumed): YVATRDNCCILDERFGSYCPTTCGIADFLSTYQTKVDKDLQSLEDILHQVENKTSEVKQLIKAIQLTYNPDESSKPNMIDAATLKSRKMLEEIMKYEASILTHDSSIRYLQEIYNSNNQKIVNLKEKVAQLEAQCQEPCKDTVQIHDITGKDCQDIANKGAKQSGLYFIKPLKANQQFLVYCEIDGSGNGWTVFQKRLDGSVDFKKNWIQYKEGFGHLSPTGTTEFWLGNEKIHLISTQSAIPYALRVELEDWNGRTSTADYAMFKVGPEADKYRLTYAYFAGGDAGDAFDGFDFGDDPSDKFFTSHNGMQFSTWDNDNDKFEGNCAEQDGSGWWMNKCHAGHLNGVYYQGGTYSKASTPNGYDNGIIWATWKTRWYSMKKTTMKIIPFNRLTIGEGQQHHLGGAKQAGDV
Kind of assay: Fibrin binding of Cu-64 labeled probes, dried fibrin plate, percentage bound. To be noted: dried fibrin wells, 37° C., unbound probe by well counting. The procedure: Fibrinogen from human plasma (Calbiochem) was dialyzed against 50 mM Tris, pH 7.4, 150 mM sodium chloride, 5 mM sodium citrate (TBS·citrate). The fibrinogen concentration was adjusted to 5 mg/mL and CaCl2 was added (7 mM). The fibrinogen solution (50 μL) was dispensed into the wells of a 96-well polystyrene microplate (Immulon-II). A solution (50 μL) of human thrombin (2 U/mL) in TBS was added to each well to clot the fibrinogen. The plates were incubated at 37° C. and evaporated to dryness overnight. The plates were sealed with tape and stored at −20° C. until use. The wells with dried fibrin were incubated at 37° C. with known concentrations of the probes. The concentration of the unbound probe was determined by well counting. The concentration of the bound probe=[total]−[unbound]. The percentage bound probe was given by [(bound probe)/total probe)]×100.

For the substance Gd3-EP-2104R-Cu [Compound 21], the “% bound (percentage bound probe)” value is given as 98.7%.

The values are drawn from patent publication US9200017B2, “Multimodal imaging of fibrin” (The General Hospital Corporation, priority 2009, dated 2015).
